Results taken from patent US20110263647A1 (AMGEN INC., priority 2009, published 2011).
Structures can show the parent of a compound that is named as a salt.

Tested on: not listed separately
Assay: In vivo pharmacokinetics, IV and oral gavage
Design: species or system male Sprague-Dawley rats
Conditions: male, Sprague-Dawley, plasma; rat, IV 0.5 mg/kg
Procedure: In vivo pharmacokinetic parameters were determined by measuring systemic plasma exposure in male Sprague-Dawley rats (Charles River Laboratories or Taconic, Oxnard, Calif.) by intravenous administration (N=3 fed rats: 2 mg/kg tail vein injection in DMSO) and oral gavage (N=3 fasted rats: 5 mg/kg in 1% Tween 80-2% HPMC-97% deionized water-pH 2.0 vehicle) (Comparative Example 18′ was only dosed IV and at 0.5 mg/kg). DMSO was obtained from Mallinckrodt Inc.; Tween 80 was obtained from Croda; HPMC is Methocel E50 Premium LV, obtained from Dow Excipients. Following oral administration, blood was drawn (250 μL) at 0.25, 0.5, 1, 2, 4, 6, 8, 12, and 16 hours. Following iv administration, blood was drawn (250 μL) at 0.083, 0.25, 0.5, 1, 2, 4, 6, 8, and 16 hours. Blood samples were drawn using a Culex® In Vivo Sampling System (BASi) and collected in BD Microtainer® tubes containing Lithium Heparin (BD). Plasma was obtained by centrifugation of blood at 14000 g and 2-8° C. for five minutes using an Eppendorf 5417R Centrifuge System. Plasma samples were mixed with 2× volume of acetonitrile (Sigma-Aldrich, St. Louis, Mo.). The mixture was stirred briefly using a vortex mixer and then centrifuged at 2867 g for 5 minutes in a Beckman Coulter Allegra 25R equipped with a Type S5700 rotor. The supernatant was removed and diluted 2× with mobile phase A (5/94.9/0.1 v/v/v MeOH/water/AcOH). Plasma concentrations were determined using liquid chromatography/tandem mass spectrometry, with electrospray ionization (ESI) and multiple reaction monitoring in the positive ion mode (Sciex API 3000 mass spectrometer connected to a Shimadzu LC-20AD pump and a LEAP PAL autosampler. Typical conditions used for HPLC were: mobile phase A=5/94.9/0.1 v/v/v MeOH/water/AcOH and mobile phase B=95/4.9/0.1 v/v/v MeOH/water/AcOH; HPLC column was a Varian MonoChrom C18.3μ for 2×30 mm and 51.1 for 2×50 mm) Instrument response was calibrated by a standard curve over 0.1-2000 ng/mL concentration range, and the lower limit of quantitation was 0.1-2.5 ng/mL. Peak areas were integrated on a Windows 2000 computer using the Sciex program Analyst® (Version 1.4.1). Following peak area integration, the data were exported to the software package (Watson® Non-GLP PROD (Version 7.0.0.01, Thermo Electron Corp., Waltham, Mass.)), where concentrations were determined by a weighted linear regression of peak area versus the nominal concentrations of the calibration standards. Calculations were performed on unrounded numbers. The Watson® Non-GLP PROD software was used to determine precision and accuracy for the calibration standards. Noncompartmental analysis of plasma concentration data was used to generate PK parameters such as clearance (CL, L/h/kg), volume of distribution (Vss, L/kg), area under the curve (AUC, ng·h/mL) and secondary parameters such as half-life (t1/2, h) and oral bioavailability (% F, %). This was done using WinNonlin Enterprise software (Version 5.1.1, from Pharsight Corp., Mountain View, Calif.). References for pharmacokinetic analysis include: Gabrielsson and Weiner (1997) Pharmacokinetic and Pharmacodynamic Data Analysis Concepts and Applications, 2nd ed., Swedish Pharmaceutical Press, Stockholm; Gibaldi and Perrier (1982) Pharmacokinetics, 2nd ed., Marcel Dekker, New York. Rowland and Tozer (1995) Clinical Pharmacokinetics: Concepts and Applications, 3rd ed., Lippincott Williams & Wilkins, Philadelphia.

clearance | SMILES
237 mL/min/kg | COCc1nc(NC[C@@H](N)Cc2ccc(C(F)(F)F)nc2)sc1-c1ccc2cnccc2c1 [Comparative Example 18′, (S)—N-1-(5-(Isoquinolin-6-yl)-4-(methoxymethyl)thiazol-2-yl)-3-(6-(trifluoromethyl)pyridin-3-yl)propane-1,2-diamine, reference compound]

Same assay, conditions: male, Sprague-Dawley, plasma; rat, IV 0.5 mg/kg; read-out: IV AUClast

AUC(0-t) | SMILES
33 ng·h/mL | COCc1nc(NC[C@@H](N)Cc2ccc(C(F)(F)F)nc2)sc1-c1ccc2cnccc2c1 [Comparative Example 18′, (S)—N-1-(5-(Isoquinolin-6-yl)-4-(methoxymethyl)thiazol-2-yl)-3-(6-(trifluoromethyl)pyridin-3-yl)propane-1,2-diamine, reference compound]

Same assay, conditions: male, Sprague-Dawley, plasma; rat, IV 0.5 mg/kg; read-out: IV Cmax

Cmax | SMILES
73 ng/mL | COCc1nc(NC[C@@H](N)Cc2ccc(C(F)(F)F)nc2)sc1-c1ccc2cnccc2c1 [Comparative Example 18′, (S)—N-1-(5-(Isoquinolin-6-yl)-4-(methoxymethyl)thiazol-2-yl)-3-(6-(trifluoromethyl)pyridin-3-yl)propane-1,2-diamine, reference compound]

Same assay, conditions: male, Sprague-Dawley, plasma; rat, IV 0.5 mg/kg; read-out: Vss

Vd | SMILES
6.44 L/kg | COCc1nc(NC[C@@H](N)Cc2ccc(C(F)(F)F)nc2)sc1-c1ccc2cnccc2c1 [Comparative Example 18′, (S)—N-1-(5-(Isoquinolin-6-yl)-4-(methoxymethyl)thiazol-2-yl)-3-(6-(trifluoromethyl)pyridin-3-yl)propane-1,2-diamine, reference compound]

Molecular target: T1, PKBα (Homo sapiens, UniProt P31749)
T1 construct: fused on or other part: His6 tag is likely on the Upstate products
T1 sequence (P31749 118-472 limits assumed): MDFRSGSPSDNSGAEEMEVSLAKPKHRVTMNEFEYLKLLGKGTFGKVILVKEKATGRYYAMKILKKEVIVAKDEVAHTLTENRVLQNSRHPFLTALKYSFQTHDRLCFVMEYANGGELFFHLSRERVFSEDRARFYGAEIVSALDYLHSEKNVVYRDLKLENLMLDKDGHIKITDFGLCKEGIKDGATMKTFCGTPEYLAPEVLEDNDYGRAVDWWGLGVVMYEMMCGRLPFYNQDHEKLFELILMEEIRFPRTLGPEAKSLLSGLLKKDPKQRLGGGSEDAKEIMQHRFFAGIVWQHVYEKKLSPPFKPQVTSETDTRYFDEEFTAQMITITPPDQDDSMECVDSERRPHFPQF
Assay: PKB kinase assay (P33-labeled ATP, peptide substrate, filter plate)
Assay type: biochemical
Conditions: with respect to PKBα
Source text: The kinase assay for evaluating PKB activity comprises active PKB enzymes, a PKB specific substrate, and P^33-labeled ATP. Two form of PKBα enzymes were used, the full length PKBα and a kinase domain of PKBα with pleckstrin domain (amino acids 1-117) deleted. Both PKB enzymes were obtained from Upstate cell signaling solutions (Cat.# 14-276 and 14-341). The PKB substrate used is a synthetic peptide (ARKRERTYSFGHHA (SEQ ID NO: 1)) as described in Obata et al., J. Biol. Chem. 275 (46), 36108-36115 (2000). The phosphorylated substrate was captured by a phosphocellulose membrane filter plate (MILLIPORE) and measured by a Wallac Microbeta liquid scintillation counter (Perkin Elmer). Table 1 provides the IC50 values obtained for each of the examples with respect to PKBα.

IC50 | SMILES
< 50 nM | N[C@H](CNc1nc(CO)c(-c2ccc3cnc(F)cc3c2)s1)Cc1ccc(C(F)(F)F)nc1 [Example 16, (2-((S)-2-Amino-3-(6-(trifluoromethyl)pyridin-3-yl)propylamino)-5-(3-fluoroisoquinolin-6-yl)thiazol-4-yl)methanol]
< 50 nM | CC(F)(F)c1ccc(C[C@H](N)CNc2ncc(-c3ccc4cnc(F)cc4c3)s2)cc1 [Example 3, N—((S)-2-Amino-3-(4-(1,1-difluoroethyl)phenyl)propyl)-5-(3-fluoroisoquinolin-6-yl)thiazol-2-amine]
< 50 nM | COC(=O)c1nc(NC[C@@H](N)Cc2ccc(C(C)(F)F)nc2)sc1-c1ccc2cnc(F)cc2c1 [Example 8, Methyl 2-((S)-2-amino-3-(6-(1,1-difluoroethyl)pyridin-3-yl)propylamino)-5-(3-fluoroisoquinolin-6-yl)thiazole-4-carboxylate]
< 50 nM | COCO[C@@H](c1ccc(C(F)(F)F)cc1)[C@H](N)CNc1ncc(-c2ccc3cnc(F)cc3c2)s1 [Example 39]
< 50 nM | CC(F)(F)c1ccc(C[C@H](N)CNc2nc(CO)c(-c3ccc4cnc(F)cc4c3)s2)cn1 [Example 9, (2-((S)-2-Amino-3-(6-(1,1-difluoroethyl)pyridin-3-yl)propylamino)-5-(3-fluoroisoquinolin-6-yl)thiazol-4-yl)methanol]
50 to 1000 nM | N[C@H](CNc1ncc(-c2ccc3cnc(F)cc3c2)s1)Cn1cnc(C(F)(F)F)c1 [Example 28, N—((R)-2-Amino-3-(4-(trifluoromethyl)-1H-imidazol-1-yl)propyl)-5-(3-fluoroisoquinolin-6-yl)thiazol-2-amine]
< 50 nM | COCc1nc(CC[C@@H](N)Cc2ccc(C(F)(F)F)nc2)sc1-c1ccc2cnc(F)cc2c1 [Example 49, (2R)-4-(5-(3-Fluoroisoquinolin-6-yl)-4-(methoxymethyl)thiazol-2-yl)-1-(6-(trifluoromethyl)pyridin-3-yl)butan-2-amine]
< 50 nM | C[C@@H](c1ccc(C(F)(F)F)nc1)[C@H](N)CNc1nc(CO)c(-c2ccc3cnc(F)cc3c2)s1 [Example 12, (2-((2S,3S)-2-Amino-3-(6-(trifluoromethyl)pyridin-3-yl)butylamino)-5-(3-fluoroisoquinolin-6-yl)thiazol-4-yl)methanol]
50 to 1000 nM | CNC(=O)c1nc(NC[C@@H](N)Cc2ccc(C(F)(F)F)cc2)sc1-c1ccc2cnc(F)cc2c1 [Example 22, 2-((S)-2-Amino-3-(4-(trifluoromethyl)phenyl)propylamino)-5-(3-fluoroisoquinolin-6-yl)-N-methylthiazole-4-carboxamide trifluoroacetate]
50 to 1000 nM | CNC(=O)c1nc(NC[C@@H](N)Cc2ccc(C(F)(F)F)nc2)sc1-c1ccc2cnc(F)cc2c1 [Example 17]
< 50 nM | COC(=O)c1nc(NC[C@@H](N)Cc2ccc(C(F)(F)F)cc2)sc1-c1ccc2cnc(F)cc2c1 [Example 20, Methyl 2-((S)-2-amino-3-(4-(trifluoromethyl)phenyl)propylamino)-5-(3-fluoroisoquinolin-6-yl)thiazole-4-carboxylate]
< 50 nM | COC(=O)c1nc(NC[C@@H](N)Cc2ccc(C(F)(F)F)nc2)sc1-c1ccc2cnc(F)cc2c1 [Example 15, Methyl 2-((S)-2-amino-3-(6-(trifluoromethyl)pyridin-3-yl)propylamino)-5-(3-fluoroisoquinolin-6-yl)thiazole-4-carboxylate]
< 50 nM | N[C@H](CNc1ncc(-c2ccc3cnc(F)cc3c2)s1)Cc1ccc(C(F)(F)F)nc1Cl [Example 31, N—((S)-2-Amino-3-(2-chloro-6-(trifluoromethyl)pyridin-3-yl)propyl)-5-(3-fluoroisoquinolin-6-yl)thiazol-2-amine]
< 50 nM | COCc1nc(NC[C@@H](N)Cc2ccc(C(C)(F)F)nc2)sc1-c1ccc2cnc(F)cc2c1 [Example 6, N—((S)-2-Amino-3-(6-(1,1-difluoroethyl)pyridin-3-yl)propyl)-5-(3-fluoroisoquinolin-6-yl-4-(methoxymethyl)thiazol-2-amine trifluoroacetate]
50 to 1000 nM | NC(CCc1nc(CO)c(-c2ccc3cnc(F)cc3c2)s1)Cc1ccc(C(F)(F)F)cc1 (racemic) [Example 51, (±)-(2-(3-Amino-4-(4-(trifluoromethyl)phenyl)butyl)-5-(3-fluoroisoquinolin-6-yl)thiazol-4-yl)methanol]
< 50 nM | COCc1nc(NC[C@@H](N)[C@@H](C)c2ccc(C(F)(F)F)nc2)sc1-c1ccc2cnc(F)cc2c1 [Example 13, N-((2S,3S)-2-Amino-3-(6-(trifluoromethyl)pyridin-3-yl)butyl)-5-(3-fluoroisoquinolin-6-yl)-4-(methoxymethyl)thiazol-2-amine]
50 to 1000 nM | COC(=O)c1nc(NC[C@@H](N)[C@@H](C)c2ccc(C(F)(F)F)nc2)sc1-c1ccc2cnc(F)cc2c1 [Example 11, Methyl 2-((2S,3S)-2-amino-3-(6-(trifluoromethyl)pyridin-3-yl)butylamino)-5-(3-fluoroisoquinolin-6-yl)thiazole-4-carboxylate]
1000 to 10000 nM | N[C@H](CCc1ncc(-c2ccc3cnc(F)cc3c2)s1)Cc1ccc(C(F)(F)F)cc1 [Example 48, (2R)-4-(5-(3-Fluoroisoquinolin-6-yl)thiazol-2-yl)-1-(4-(trifluoromethyl)phenyl)butan-2-amine]
1000 to 10000 nM | COCc1nc(NC[C@H](N)Cc2ccc(C(F)(F)F)nc2)sc1-c1ccc2cnc(F)cc2c1 [Example 19, N—((R)-2-Amino-3-(6-(trifluoromethyl)pyridin-3-yl)propyl)-5-(3-fluoroisoquinolin-6-yl)-4-(methoxymethyl)thiazol-2-amine]

SMILES | IC50
CC(C)(C)OC(=O)N[C@@H](Cc1ccc(C(F)(F)F)nc1)CN(C(=O)OC(C)(C)C)c1ncc(-c2ccc3cnc(F)cc3c2)s1 [Example 1, tert-Butyl ((2S)-2-((tert-butoxycarbonyl)amino)-3-(6-(trifluoromethyl)-3-pyridinyl)propyl)(5-(3-fluoro-6-isoquinolinyl)-1,3-thiazol-2-yl)carbamate] | 1000 to 10000 nM
CC(C)(C)OC(=O)N[C@@H](Cc1ccc(C(F)F)cc1)CN(C(=O)OC(C)(C)C)c1ncc(-c2ccc3cnc(F)cc3c2)s1 [Example 41, tert-Butyl ((2S)-2-((tert-butoxycarbonyl)amino)-3-(4-(difluoromethyl)phenyl)propyl)(5-(3-fluoro-6-isoquinolinyl)-1,3-thiazol-2-yl)carbamate] | 1000 to 10000 nM
